Values quoted from earlier work in US11642396B2 (priority 2013, dated 2023).

System: H7N9 infection
Details: human, in vivo

## CCOC(=O)C1=C[C@@H](OC(CC)CC)[C@H](NC(C)=O)[C@@H](N)C1 [oseltamivir]
  viral load in the respiratory tract of patients: reduce the viral load
